Target: T1, hURAT1 transporter (URAT-1) (Homo sapiens, UniProt Q96S37)
T1 construct: Full-length human URAT1 gene (SLC22A12) was subcloned from plasmid pCMV6-XL5
T1 sequence (Q96S37 1-553): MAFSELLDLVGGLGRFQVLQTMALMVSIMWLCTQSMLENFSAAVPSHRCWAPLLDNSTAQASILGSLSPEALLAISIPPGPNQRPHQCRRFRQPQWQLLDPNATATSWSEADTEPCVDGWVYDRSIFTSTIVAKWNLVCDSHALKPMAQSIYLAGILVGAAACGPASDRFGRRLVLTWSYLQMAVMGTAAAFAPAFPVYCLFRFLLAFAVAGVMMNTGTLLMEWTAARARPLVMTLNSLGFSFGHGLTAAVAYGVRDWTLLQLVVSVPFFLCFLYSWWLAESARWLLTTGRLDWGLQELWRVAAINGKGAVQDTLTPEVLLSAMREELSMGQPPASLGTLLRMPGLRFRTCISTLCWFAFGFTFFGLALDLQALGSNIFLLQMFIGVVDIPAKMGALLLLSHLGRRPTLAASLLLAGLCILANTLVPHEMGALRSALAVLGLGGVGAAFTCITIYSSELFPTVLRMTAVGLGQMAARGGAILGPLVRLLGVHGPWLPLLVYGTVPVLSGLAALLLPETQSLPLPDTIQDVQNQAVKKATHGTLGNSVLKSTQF
Assay: Uric Acid Uptake Assay (URAT-1 EC50)
Format: cell-based
Conditions: HEK293/urat1 cells, C14 uric acid uptake, 40 μM uric acid, 10 minutes at room temperature
Text: Uric Acid Uptake Assay (URAT-1 EC50)
Creation of Stable Cell Lines Expressing hURAT1 Transporter: Full-length human URAT1 gene (SLC22A12) was subcloned from plasmid pCMV6-XL5 (Origene) into eukaryotic expression plasmid pCMV6/Neo (Origene) using Not I restriction sites. Gene sequencing confirmed the sequence of hURAT1 as outlined in Genbank (Accession #NM_144585.2). HEK293 human embryonic kidney cells (ATCC#CRL-1573) were propagated in EMEM tissue culture medium as described by ATCC in an atmosphere of 5% CO2 and 95% air. Transfections of HEK293 cells with the pCMV6/Neo/URAT1 construct were performed using L2000 transfection reagent (Invitrogen) as described by the manufacturer. After 24 h the transfected cells were split into 10 cm tissue culture plates and grown for 1 day after which the medium was replaced with fresh growth medium containing G418 (Gibco) at 0.5 mg/ml final concentration. Drug-resistant colonies were selected after approximately 8 days and then tested for ^14C-uric acid transport activity. The HEK293/urat1 cells are plated on Poly-D-Lysine Coated 96-well Plates at a density of 75,000 cells per well.
Cells were grown overnight (20-26 hours) at 37° C. in an incubator. Plates were allowed to come to room temperature and media was washed out with one wash of 250 μl of Wash Buffer (125 mM Na Gluconate, 10 mM Hepes pH 7.3). Compound or vehicle is added in assay buffer with C14 Uric Acid for a final concentration of 40 μM Uric Acid with a specific activity of 54 mCi/mmol Assay Buffer is 125 mM Sodium Gluconate, 4.8 mM Potassium Gluconate, 1.2 mM Potassium phosphate, monobasic, 1.2 mM magnesium sulfate, 1.3 mM Ca Gluconate, 5.6 mM Glucose, 25 mM HEPES, pH 7.3. Plates were incubated at room temperature for 10 minutes then washed 3 times with 50 μl Wash Buffer and 3 times with 250 μl Wash Buffer. Microscint 20 Scintillation Fluid was added and plates were incubated overnight at 45° C. to equilibrate. Plates are then read on the TopCount Plate Reader and an EC50 value generated. (See Enomoto et al, Nature, 2002, 417, 447-451 and Anzai et al, J. Biol. Chem., 2004, 279, 45942-45950.)
Compounds prepared as described above in examples 24-32, were examined according to the procedure described herein and EC50 values generated. The table below summarizes the activity of the compounds in the Uric Acid Uptake Assay, wherein

| Compound | EC50 [µM] |
| --- | --- |
| CC(C)(Sc1ccnn1-c1cccc2ccccc12)C(=O)O [Example 25, 2-Methyl-2-(1-(naphthalen-1-yl)-1H-pyrazol-5-ylthio)propanoic acid] | < 5 |
| Cc1[nH]nc(OC(C)(C)C(=O)O)c1-c1cccc2ccccc12 [26 (step D), 2-methyl-2-(5-methyl-4-(naphthalen-1-yl)-1H-pyrazol-3-yloxy)propanoic acid] | < 5 |
| CC(C)(Oc1ccnn1-c1cccc2ccccc12)C(=O)O [Example 24, 2-Methyl-2-(1-(naphthalen-1-yl)-1H-pyrazol-5-yloxy)propanoic acid] | 5 to 20 |
| CCOC(=O)C(C)(C)Oc1n[nH]c(C)c1-c1cccc2ccccc12 [26 (step C), Ethyl 2-methyl-2-(5-methyl-4-(naphthalen-1-yl)-1H-pyrazol-3-yloxy)propanoate] | < 5 |

Further lines, results first:

| EC50 [µM] | Compound |
| --- | --- |
| 5 to 20 | O=C(O)CSc1snnc1-c1cccc2ccccc12 [Example 32, 2-(4-(Naphthalen-1-yl)-1,2,3-thiadiazol-5-ylthio)acetic acid] |
| < 5 | CC(C)(Sc1cnnn1-c1cccc2ccccc12)C(=O)O [Example 28, 2-Methyl-2-(1-(naphthalen-1-yl)-1H-1,2,3-triazol-5-ylthio)propanoic acid] |
| < 5 | CC(C)(Sc1nnnn1-c1cccc2ccccc12)C(=O)O [Example 30, 2-Methyl-2-(1-(naphthalen-1-yl)-1H-tetrazol-5-ylthio)propanoic acid] |

Reference: patent publication US8372807B2, “Methods of modulating uric acid levels” (Ardea Biosciences, Inc., priority 2009, dated 2013)
